Data set [1] has as its system human squamous cell carcinomas HSC-4. Description: Cytotoxicity CC50, MTT assay, HSC-4. To be noted: Homo sapiens, HSC-4, 24 h, read-out: CC50(μM) HSC-4. The gist of the method: (§1)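 Tumour cells and normal oral cells (HGF, HPC, HPLF; 3-7 population doublings) exposed to graded compound concentrations for 24 h. Viability by MTT absorbance at 540 nm, or by trypan blue exclusion with haemocytometer counting for HL-60; CC50 derived from dose-response curves.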
In general terms: Formazan colour is commonly taken as a measure of viable cells.

In data set [2] the test system is human squamous cell carcinomas HSC-2. Kind of data set: Cytotoxicity CC50, MTT assay, HSC-2. To be noted: Homo sapiens, HSC-2, 24 h, read-out: CC50(μM) HSC-2. The gist of the method: as §1
In data set [3] the test system is murine L-5178 lymphoma cells transfected with the human MDR1 gene. Kind of data set: MDR reversal, rhodamine 123 fluorescence activity ratio. To be noted: FAR >1 indicates MDR reversal; for FAR value 4 μg/ml: compound 4 μg/ml; for FAR value 40 μg/ml: compound 40 μg/ml. Here is the method: A solution of the test compound (2 mg/ml, 10 μl) in dimethylsulfoxide was added to aliquots of the cell suspension and incubated at room temperature for 10 minutes. […] The cells were washed twice and resuspended in PBS (pH 7.4) after which the fluorescence was measured using a Beckton Dickinson FACScan instrument. The fluorescence of the cells was measured in treated MDR cells (F1), untreated MDR cells (F2), treated parental cells (F3) […] were obtained from the following equation, viz (F1/F2)/(F3/F4).

Data set [4] concerns human promyelocytic leukemia HL-60. Kind of data set: Cytotoxicity CC50, trypan blue exclusion, HL-60. To be noted: Homo sapiens, HL-60, 24 h, read-out: CC50(μM) HL-60. The gist of the method:
as §1

Data set [5] is described as follows: in vitro. To be noted: human.
The nature of data set [6]: in vitro. The following applies: human. This is another data set of the same source.
Data set [7] in a line: in vitro. To be noted: human. This is another data set of the same source.
The test system of data set [8] is HGF, HPC and HPLF cells versus HSC-2, HSC-4 and HL-60 neoplasms. Kind of data set: Selectivity index, normal versus malignant cells. It counts as cell-based, human. The following applies: average CC50 of HGF, HPLF divided by average CC50 of HSC-2, HSC-4, HL-60. As for the experimental part: In addition, the compounds were evaluated against human squamous cell carcinomas (HSC-2 and HSC-4) and human promyelocytic leukemia neoplasms (HL-60) and compared with normal cells, i.e. human gingival fibroblasts (HGF), human pulp cells (HPC) and human periodontal ligament fibroblasts (HPLF).
MTT stands for 3-(4,5-dimethylthiazol-2-yl)-2,5-diphenyltetrazolium bromide). The cells were incubated with varying concentrations of the compounds along with untreated cells for 24 h and the absorbance at 540 nm measured. In the case of the HL-60 assay, the trypan blue exclusion method was followed and cell viability was determined using a haemocytometer. The CC50 values were obtained from dose-response curves (Sakagami, H.; Satoh, K.; Ohata, H.; Takahashi, H.; Yoshida, H.; Iida, M.; Kuribayashi, N.; Sakagami, T.; Momose, K.; Takeda, M. Anticancer Res. 1996, 16, 2635-2644). The general methods used in culturing the cells employed in these cytotoxicity experiments have been described previously (Kawase, M.; Sakagami, H.; Motohashi, N.; Hauer, H.; Chatterjee, S. S.; Spengler, G.; Vigyikanne, A. V.; Molnár, A.; Molnár, J. In Vivo 2005, 19, 705-712; and Takeuchi, R.; Hoshijima, H.; Onuki, N.; Nagasaka, H.; Chowdhury, S. A.; Kawase, M.; Sakagami, H. Anticancer Res. 2005, 25, 4037-4042). In brief, the malignant cells were obtained from Professor Nagumo, Showa University, Japan. The HGF, HPC and HPLF cells were prepared from human periodontal tissue after obtaining informed consent according to the guidelines of Meikai University Ethics Committee, Japan (No. 0206). Since normal cells have a short lifespan, cells at the 3-7 population doubling time were used. With the exception of the HL-60 neoplasm, the cells were cultured in DMEM containing heat-inactivated FBS (10%) at 37° C. in a humidified carbon dioxide atmosphere and subcultured by trypsinization. The HL-60 cells were cultured in a similar fashion except that RPMI 1640 media was employed.

The subject of another data set is HCT 116. Description: Human tumour cell line panel, colon cancer HCT 116. The data set is classed as cell-based. The following applies: Homo sapiens, HCT-116, 48 h; read-out: Colon cancer cells, IC50(μM) HCT 116. As for the experimental part: (§2) In addition, both 5-fluorouracil and melphalan were evaluated towards 57 cell lines. […] MG MID is the average of the potencies of the compound to approximately 50 neoplastic cell lines.

For another data set, the system named is SR. Description: Human tumour cell line panel, leukemic SR. It counts as cell-based. The following applies: Homo sapiens, SR, 48 h; read-out: Leukemic cells, IC50(μM) SR. As for the experimental part:
as §2

A further data set has as its system RPMI 8226. Description: Human tumour cell line panel, leukemic RPMI 8226. The data set is classed as cell-based. To be noted: Homo sapiens, RPMI-8226, 48 h; read-out: Leukemic cells, IC50(μM) RPMI 8226. Here is the method:
as §2

Another data set relates to human tumour cell lines. Kind of data set: Panel of human tumour cell lines, all cell lines (mean graph midpoint). The data set is classed as cell-based. The gist of the method: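 Compounds tested against about 49 human cancer cell lines covering leukemia, melanoma, lung, colon, CNS, ovarian, renal, prostate and breast tumours. MG MID is the average potency across the approximately 50 lines.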

The subject of a further data set is KM 12. Description: Human tumour cell line panel, colon cancer KM 12. It counts as cell-based. To be noted: Homo sapiens, KM12, 48 h; read-out: Colon cancer cells, IC50(μM) KM 12. As for the experimental part:
as §2

A further data set concerns K 562. Description: Human tumour cell line panel, leukemic K 562. It counts as cell-based. To be noted: Homo sapiens, K562, 48 h; read-out: Leukemic cells, IC50(μM) K 562. As for the experimental part: as §2
The next data set deals with HCC 2998. Kind of data set: Human tumour cell line panel, colon cancer HCC 2998. It counts as cell-based. To be noted: Homo sapiens, HCC 2998, 48 h; read-out: Colon cancer cells, IC50(μM) HCC 2998. Here is the method: as §2
A further data set deals with HL 60. Kind of data set: Human tumour cell line panel, leukemic HL 60. It counts as cell-based. To be noted: Homo sapiens, HL-60, 48 h; read-out: Leukemic cells, IC50(μM) HL 60. As for the experimental part:
as §2

The test system of the next data set is SW 620. Description: Human tumour cell line panel, colon cancer SW 620. The data set is classed as cell-based. To be noted: Homo sapiens, SW-620, 48 h; read-out: Colon cancer cells, IC50(μM) SW 620. Here is the method:
as §2

The next data set relates to HCT 15. Kind of data set: Human tumour cell line panel, colon cancer HCT 15. The following applies: Homo sapiens, HCT-15, 48 h; read-out: Colon cancer cells, IC50(μM) HCT 15. The data set is classed as cell-based. As for the experimental part: as §2
A further data set has as its system COLO 205. Kind of data set: Human tumour cell line panel, colon cancer COLO 205. It counts as cell-based. To be noted: Homo sapiens, COLO 205, 48 h; read-out: Colon cancer cells, IC50(μM) COLO 205. As for the experimental part: as §2
The subject of a further data set is mice. To be noted: five consecutive daily doses of 240 mg/kg; cited from earlier work.
Data set [9] has as its system murine lymphocytic leukemia P388/MRI cell line. The following applies: cited from earlier work.
Data set [10] has as its system synthetic DNA, poly(d(AT)). To be noted: cited from earlier work.

A value given as a limit tells only on which side of the number the result lay.

What is called melting point is the temperature of the solid-liquid transition. In turn, `CCN(CC)CCOc1ccc(C(=O)O)cc1.Cl` returned a melting point of 170 to 172 °C.
On the same count and under the same terms, the value for `O=C1C(=Cc2ccccc2)CN(C(=O)c2ccccc2)CC1=Cc1ccccc1` [Compound 2a, 1-Benzoyl-3,5-bis(phenylmethylene)-4-piperidone] was 165 to 166 °C; that for `COc1ccc(C(=O)N2CC(=Cc3ccccc3)C(=O)C(=Cc3ccccc3)C2)cc1` [Compound 2b, 1-(4-Methoxybenzoyl)-3,5-bis(phenylmethylene)-4-piperidone] was 177 to 178 °C.
Consider `CCN(CC)CCOc1ccc(C(=O)N2CC(=Cc3ccc(Cl)cc3)C(=O)C(=Cc3ccc(Cl)cc3)C2)cc1.Cl` [Compound 4b, 3,5-bis(4-Chlorophenylmethylene)-1-[4-(2-diethylaminoethoxy)phenylcarbonyl]-4-piperidone hydrochloride], for which the CC50 was determined as 34 µM in data set [1], 160 µM in data set [2] and 46 µM in data set [4]. Also, the “FAR value 4 μg/ml” value in [3] is 118. For the same molecule, the “FAR value 40 μg/ml” value in data set [3] was determined as 99.7. Further, the CC50 at 24 h in “in vitro [5]” is 230 µM; in the data set “in vitro [6]” it was > 400 µM; in the data set “in vitro [7]” it was > 400 µM. Moreover, the “SI (selectivity index)” value in [8] was >4.3.
As for `CCN(CC)CCOc1ccc(C(=O)N2CC(=Cc3ccc(C)cc3)C(=O)C(=Cc3ccc(C)cc3)C2)cc1.Cl` [Compound 4d, 1-[4-(2-Diethylaminoethoxy)phenylcarbonyl]-3,5-bis(4-methylphenylmethylene)-4-piperidone hydrochloride], the figures for the CC50 in data set [1], in data set [2] and in data set [4] were 2.3 µM, 2.2 µM and 0.79 µM, respectively. The “FAR value 4 μg/ml” value in [3] turned out to be 106. For the same molecule, in [3], the “FAR value 40 μg/ml” value is 66.6. The “SI (selectivity index)” value in data set [8] is reported as 3.3.
A word on the IC50: it is the concentration at which inhibition is half-maximal. As for `Cl.O=C1C(=Cc2ccc(Cl)cc2)CN(C(=O)c2ccc(OCCN3CCCCC3)cc2)CC1=Cc1ccc(Cl)cc1` [Compound 5b, 3,5-bis(4-Chlorophenylmethylene)-1-[4-{2-(1-piperidinyl)ethoxy}phenylcarbonyl]-4-piperidone hydrochloride], the IC50 is 47.9 µM in the data set on HCT 116; 2.29 µM with SR; 0.759 µM in the data set with RPMI 8226; > 11.5 µM in the data set with human tumour cell lines (mean graph midpoint, average of 49 (38-59) human tumour cell lines, 48 h incubation, read-out: All cell lines IC50); 19.1 µM with KM 12; 4.37 µM in the data set on K 562. Also, the 50% inhibitory concentration (IC50) in the data set on HCC 2998 was 1.58 µM; with HL 60 it was 20.4 µM; with SW 620, 3.55 µM; in the data set with HCT 15 it was 49 µM; in the data set on COLO 205, 15.8 µM. Besides, the CC50 in data set [1] was determined as 48 µM; in data set [2], 110 µM; in data set [4], 63 µM. In addition, the “FAR value 4 μg/ml” value in [3] came out at 157. In addition, in data set [3], the “FAR value 40 μg/ml” value amounted to 133. Besides, the CC50 at 24 h is > 400 µM in “in vitro [5]”, > 400 µM in “in vitro [6]” and 340 µM in the data set “in vitro [7]”. Further, the “S.I. (selectivity index)” value in the data set on human tumour cell lines (ratio of the IC50 figures for the least and most sensitive cell lines) is >66.1. Also, the “SI (selectivity index)” value in data set [8] is recorded as >5.2.
`O=C1C(=Cc2ccccc2)CNCC1=Cc1ccccc1` [Compound B1]: the Fatalities in mice result with mice was “did not induce fatalities”. In addition, the Cytotoxic activity result in data set [9] is recorded as “possesses cytotoxic activity”. Further, the “Binding to poly(d(AT))” value in data set [10] is “does bind”.

The values are drawn from patent US7582655B2, “Antineoplastic compounds” (University of Saskatchewan, priority 2005, dated 2009).
